The text below walks through data of patent US20130317116A1, “EXTERNAL SKIN PREPARATION” (JX NIPPON OIL & ENERGY CORPORATION, priority 2011, published 2013).

The test in a line: Singlet oxygen quenching activity of carotenoids by the ESR method. The format is physicochemical. The following applies: for singlet oxygen quenching activity compared with astaxanthin: ESR method, Table 3 and FIG. 1; for ESR signal intensity / ESR signal intensity Mean: carotenoid 2.5 mM, lower intensity = more effective quenching; for ESR signal intensity: hematoporphyrin + UVA, TMPD spin trap; for ESR signal intensity Mean: mean of three independent experiments, control 3.20. From the text: Crosslinking of dermal collagen by singlet oxygen is one reason for wrinkle formation caused by photoaging (Non-Patent Document 1). If the external skin preparation according to the present invention can quench singlet oxygen, specifically, changes in collagen as observed on the photoaged skin can be inhibited, and anti-aging effects can be exerted. Accordingly, pharmacological evaluation of the external skin preparation according to the present invention in respect of improvement and prevention of wrinkle formation can be performed using the singlet oxygen quenching capacity as the indicator. For example, pharmacological evaluation of the external skin preparation according to the present invention can be performed by determining whether or not the external skin preparation according to the present invention has sufficient singlet oxygen quenching capacity by the electron spin resonance (ESR) method that is employed for evaluation of the singlet oxygen quenching activity.
Evaluation was carried out by the ESR method using an ESR apparatus (JEOLJES-FR30, JEOL Ltd.). The method of evaluation is described below.
50 μl of 250 mM spin trap agent, 50 μl of an aqueous solution of 2,2,6,6-tetramethyl-4-piperidione (TMPD), and 50 μl of an acetone solution of 10 mM carotenoid were added to 50 μl of 100 mM phosphate buffer (pH 7.4), these components were thoroughly mixed, 50 μl of an aqueous solution of 0.25 mM hematoporphyrin was added thereto as a singlet oxygen generator, and the resultant was irradiated with ultraviolet A (UVA) to generate singlet oxygen.
Subsequently, ESR signals based on stable nitroxyl radicals (4-oxo-TEMPO) generated upon the reaction between singlet oxygen and TMPD in the reaction solution were measured.
No antioxidant was applied to a control group. The results are the mean and the standard deviations of three independent experiments.

[1] abbreviates: first of three independent experiments.
[2] abbreviates: second value column of three independent experiments.
Where [3] appears, read: third value column of three independent experiments.

Regarding `CC1=C(/C=C/C(C)=C/C=C/C(C)=C/C=C/C=C(C)/C=C/C=C(C)/C=C/C2=C(C)C(=O)[C@@H](O)CC2(C)C)C(C)(C)CCC1=O` [Adonirubin, adonirubin], the “singlet oxygen quenching activity compared with astaxanthin” value is “significantly higher than that of astaxanthin” and the “ESR signal intensity Mean” value was 1.01. Also, under setting [1], the ESR signal intensity is reported as 0.79. Moreover, the ESR signal intensity under setting [2] was 1.13. For the same compound, under setting [3], the ESR signal intensity worked out at 1.11.

In the case of `CC1=C(/C=C/C(C)=C/C=C/C(C)=C/C=C/C=C(C)/C=C/C=C(C)/C=C/C2=C(C)C(=O)[C@@H](O)CC2(C)C)C(C)(C)C[C@H](O)C1` [Adonixanthin, adonixanthin], the “singlet oxygen quenching activity compared with astaxanthin” value is reported as “significantly higher than that of astaxanthin” and the “ESR signal intensity Mean” value is reported as 0.81. In addition, the ESR signal intensity under setting [1] came to 0.74. Also, under setting [2], the ESR signal intensity stood at 0.97. In addition, under setting [3], the ESR signal intensity came to 0.72.

As to `CC1=C(/C=C/C(C)=C/C=C/C(C)=C/C=C/C=C(C)/C=C/C=C(C)/C=C/C2=C(C)C(=O)[C@@H](O)CC2(C)C)C(C)(C)C[C@H](O)C1=O` [Astaxanthin, astaxanthin, reference compound], the “ESR signal intensity Mean” value was found to be 2.35. Under setting [1], the ESR signal intensity was found to be 2.00. Besides, the ESR signal intensity under setting [2] is recorded as 2.33. In addition, under setting [3], the ESR signal intensity amounted to 2.72.
